Laboratory results taken from ChEMBL document CHEMBL3885861, “Open TG-GATES”.

Species on record: Rattus norvegicus
Experiment: Open TG-GATES - Regimen: Single
Type: toxicity, organism-based, Sprague-Dawley
Parameters: regimen Single, gender Male, age 6 weeks
Settings: in vivo, po, 150 mg/kg, route gavage, dose level Middle; for APTT / Bas / Eos / Fbg / Hb / Ht / Lym / MCH / MCHC / MCV / Mono / Neu / PT / Plat / RBC / Ret / WBC: tissue Blood; for KIDNEY_L / KIDNEY_R / KIDNEY_TOTAL: tissue Kidney; for LIVER: tissue Liver; for A/G / ALP / ALT / AST / BUN / CRE / Ca / Cl / DBIL / GLC / IP / K / LDH / Na / PL / RALB / TBIL / TC / TG / TP / gamma-GTP: tissue Plasma

CN1C(=O)CCS(=O)(=O)C1c1ccc(Cl)cc1 (configuration not stated) [CHLORMEZANONE]
TERMINAL_BW (3 h): 230 g | APTT (3 h): 15.9 s | Bas (3 h): 0% | Eos (3 h): 1% | Fbg (3 h): 314.4 mg/dL | Hb (3 h): 13.5 g/dL | Ht (3 h): 39.4% | Lym (3 h): 77% | MCH (3 h): 21.7 pg | MCHC (3 h): 34.1% | MCV (3 h): 63.6 fL | Mono (3 h): 2.8% | Neu (3 h): 18.4% | PT (3 h): 13.1 s | Plat (3 h): 123.1 x10_4/uL | RBC (3 h): 620.2 x10_4/ul | Ret (3 h): 7.9% | WBC (3 h): 84.3 x10_2/uL | KIDNEY_L (3 h): 1 g | KIDNEY_R (3 h): 1 g | KIDNEY_TOTAL (3 h): 1.9 g | LIVER (3 h): 10.6 g | A/G (3 h): 0.9 | ALP (3 h): 1400.8 IU/L | ALT (3 h): 49.6 IU/L | AST (3 h): 75.6 IU/L | BUN (3 h): 11.6 mg/dL | CRE (3 h): 0.2 mg/dL | Ca (3 h): 11.6 mg/dL | Cl (3 h): 104.2 meq/L | DBIL (3 h): 0.018 mg/dL | GLC (3 h): 182.2 mg/dL | IP (3 h): 9.5 mg/dL | K (3 h): 4.3 meq/L | LDH (3 h): 56.8 IU/L | Na (3 h): 140.6 meq/L | PL (3 h): 157.6 mg/dL | RALB (3 h): 2.6 g/dL | TBIL (3 h): 0.034 mg/dL | TC (3 h): 87 mg/dL | TG (3 h): 95.6 mg/dL | TP (3 h): 5.6 g/dL | gamma-GTP (3 h): 1 IU/L | TERMINAL_BW (6 h): 229.6 g | APTT (6 h): 17.8 s | Bas (6 h): 0% | Eos (6 h): 0.6% | Fbg (6 h): 295 mg/dL | Hb (6 h): 13.8 g/dL | Ht (6 h): 41.1% | Lym (6 h): 77.8% | MCH (6 h): 22.1 pg | MCHC (6 h): 33.6% | MCV (6 h): 65.8 fL | Mono (6 h): 3.8% | Neu (6 h): 16.8% | PT (6 h): 13.6 s | Plat (6 h): 119.1 x10_4/uL | RBC (6 h): 624.4 x10_4/ul | Ret (6 h): 8.5% | WBC (6 h): 70.9 x10_2/uL | KIDNEY_L (6 h): 1 g | KIDNEY_R (6 h): 1 g | KIDNEY_TOTAL (6 h): 2 g | LIVER (6 h): 10.1 g | A/G (6 h): 0.9 | ALP (6 h): 1441.2 IU/L | ALT (6 h): 41.6 IU/L | AST (6 h): 71.8 IU/L | BUN (6 h): 9.2 mg/dL | CRE (6 h): 0.2 mg/dL | Ca (6 h): 11.7 mg/dL | Cl (6 h): 105.6 meq/L | DBIL (6 h): 0.014 mg/dL | GLC (6 h): 184.2 mg/dL | IP (6 h): 11.2 mg/dL | K (6 h): 4.5 meq/L | LDH (6 h): 61.4 IU/L | Na (6 h): 142.8 meq/L | PL (6 h): 152 mg/dL | RALB (6 h): 2.7 g/dL | TBIL (6 h): 0.038 mg/dL | TC (6 h): 76 mg/dL | TG (6 h): 57.2 mg/dL | TP (6 h): 5.7 g/dL | gamma-GTP (6 h): 1.6 IU/L | TERMINAL_BW (9 h): 228.1 g | APTT (9 h): 14 s | Bas (9 h): 0% | Eos (9 h): 0.6% | Fbg (9 h): 329.4 mg/dL | Hb (9 h): 13.1 g/dL | Ht (9 h): 38.8% | Lym (9 h): 74.2% | MCH (9 h): 21.8 pg | MCHC (9 h): 33.8% | MCV (9 h): 64.4 fL | Mono (9 h): 2.8% | Neu (9 h): 21.2% | PT (9 h): 13.3 s | Plat (9 h): 118.2 x10_4/uL | RBC (9 h): 603 x10_4/ul | Ret (9 h): 8% | WBC (9 h): 89.8 x10_2/uL | KIDNEY_L (9 h): 1 g | KIDNEY_R (9 h): 1 g | KIDNEY_TOTAL (9 h): 1.9 g | LIVER (9 h): 9 g | A/G (9 h): 0.9 | ALP (9 h): 1520.8 IU/L | ALT (9 h): 38.6 IU/L | AST (9 h): 70.6 IU/L | BUN (9 h): 9.8 mg/dL | CRE (9 h): 0.2 mg/dL | Ca (9 h): 11.3 mg/dL | Cl (9 h): 105 meq/L | DBIL (9 h): 0.02 mg/dL | GLC (9 h): 194.6 mg/dL | IP (9 h): 11.2 mg/dL | K (9 h): 4 meq/L | LDH (9 h): 55.8 IU/L | Na (9 h): 142.8 meq/L | PL (9 h): 150.2 mg/dL | RALB (9 h): 2.6 g/dL | TBIL (9 h): 0.04 mg/dL | TC (9 h): 78.4 mg/dL | TG (9 h): 67.2 mg/dL | TP (9 h): 5.5 g/dL | gamma-GTP (9 h): 1.4 IU/L | TERMINAL_BW (24 h): 227.1 g | APTT (24 h): 17.4 s | Bas (24 h): 0% | Eos (24 h): 1% | Fbg (24 h): 271.6 mg/dL | Hb (24 h): 13.4 g/dL | Ht (24 h): 39.4% | Lym (24 h): 77% | MCH (24 h): 21.9 pg | MCHC (24 h): 34.1% | MCV (24 h): 64.2 fL | Mono (24 h): 3.4% | Neu (24 h): 17.8% | PT (24 h): 13.3 s | Plat (24 h): 123.4 x10_4/uL | RBC (24 h): 615.2 x10_4/ul | Ret (24 h): 7.5% | WBC (24 h): 94.1 x10_2/uL | KIDNEY_L (24 h): 1 g | KIDNEY_R (24 h): 1 g | KIDNEY_TOTAL (24 h): 2 g | LIVER (24 h): 10.9 g | A/G (24 h): 0.9 | ALP (24 h): 1673.6 IU/L | ALT (24 h): 50.4 IU/L | AST (24 h): 82.4 IU/L | BUN (24 h): 15.6 mg/dL | CRE (24 h): 0.2 mg/dL | Ca (24 h): 11.4 mg/dL | Cl (24 h): 105.4 meq/L | DBIL (24 h): 0.022 mg/dL | GLC (24 h): 192 mg/dL | IP (24 h): 7.6 mg/dL | K (24 h): 4.2 meq/L | LDH (24 h): 69.4 IU/L | Na (24 h): 142 meq/L | PL (24 h): 138.4 mg/dL | RALB (24 h): 2.6 g/dL | TBIL (24 h): 0.028 mg/dL | TC (24 h): 79.8 mg/dL | TG (24 h): 119 mg/dL | TP (24 h): 5.6 g/dL | gamma-GTP (24 h): 1 IU/L
